In US5132313A, “Non-competitive NMDA receptor antagonists and methods for their use” (priority 1989, dated 1992):

Biological target: PCP binding sites of the NMDA receptor complex
Design: species or system rat
Conditions: for IC50: displacing (+)-[3H]MK-801 bound to rat brain homogenates, 0.5-1 nM radioligand, 100 μM glutamate, 30 μM glycine, 2 h room temperature, pH 7.4, mean of three experiments in duplicate ±SEM; for binding potency compared with corresponding S enantiomer: R enantiomers 1, 3, 5, 7 versus 2, 4, 6, 8; for Relative Potency (%): relative to PCP = 100%, displacing (+)-[3H]MK-801

CCN[C@]12CCCC[C@H]1Cc1ccccc12 [Compound 7]
IC50: 0.068 ± 0.007 µM
binding potency compared with corresponding S enantiomer (in words): more potent in binding than the corresponding enantiomers of S stereochemistry
Relative Potency (%): 51%

N[C@]12CC=CC[C@H]1Cc1ccccc12 [Compound 1]
IC50: 0.114 ± 0.014 µM
binding potency compared with corresponding S enantiomer (in words): more potent in binding than the corresponding enantiomers of S stereochemistry
Relative Potency (%): 31%

N[C@@]12CCCC[C@@H]1Cc1ccccc12 [Compound 4]
IC50: 1.39 ± 0.049 µM
Relative Potency (%): 3%

c1ccc(C2(N3CCCCC3)CCCCC2)cc1 [PCP, phencyclidine, reference compound]
IC50: 0.035 ± 0.001 µM
Relative Potency (%): 100%

N[C@]12CCCC[C@H]1Cc1ccccc12 [Compound 3]
binding difference between enantiomeric pair of compounds 3 and 4 (compound 3 (R) versus compound 4 (S)): 73 fold
IC50: 0.019 ± 0.001 µM
binding potency compared with PCP (in words): more potent in binding than PCP
binding potency compared with corresponding S enantiomer (in words): more potent in binding than the corresponding enantiomers of S stereochemistry
Relative Potency (%): 184%

c1csc(C2(N3CCCCC3)CCCCC2)c1 [TCP, 1-[1-(2-thienyl)-cyclohexyl]-piperidine, reference compound]
IC50: 0.011 ± 0.001 µM
Relative Potency (%): 318%

CCN[C@@]12CCCC[C@@H]1Cc1ccccc12 [Compound 8]
IC50: 0.546 ± 0.04 µM
Relative Potency (%): 6%

N[C@@]12CC=CC[C@@H]1Cc1ccccc12 [Compound 2]
IC50: 2.24 ± 0.135 µM
Relative Potency (%): 2%
